From ChEMBL document CHEMBL1149789, “SAR and QSAR studies: modelling of new DAPY derivatives” (Eur J Med Chem, 2008) come the findings set out here.

By EC50 is commonly meant the concentration giving half of the maximal effect. High values mean a need for much substance, low ones an effect from little substance. In general, logP refers to the decadic logarithm of the partition coefficient of the neutral form, usually between octanol and water.

For data set [1], the system named is Human immunodeficiency virus. Briefly: Inhibition of HIV reverse transcriptase.
Data set [2] is described as follows: Partition coefficient, log P of the compound. As to conditions: octanol/water. Type of data set: physicochemical.

The compound `Cc1cc(C#N)cc(C)c1Oc1nc(Nc2ccc(C#N)cc2)ncc1N` came in with an EC50 in data set [1] of 1 nM. In addition, in data set [2] (read-out: logP), the logP was determined as 0.05.

Compound `Cc1cc(C)c(Nc2nc(Nc3ccc(C#N)cc3)ncc2C)c(C)c1` had an EC50 in data set [1] of 1.7 nM. In addition, the log partition coefficient (logP) in data set [2] (read-out: logP) was determined as 2.17. As to `C#Cc1cnc(Nc2ccc(C#N)cc2)nc1Nc1c(C)cc(C)cc1C`, in data set [2] (read-out: logP), the lipophilicity (logP) came to 1.89. `Cc1cc(C)c(Nc2ccnc(Nc3ccc(C#N)cc3)n2)c(C)c1` [DAPIVIRINE] came in with an EC50 in data set [1] of 1 nM. Besides, in data set [2] (read-out: logP), the lipophilicity (logP) is 1.9.

For `Cc1cc(C)c(Nc2nc(Nc3ccc(C#N)cc3)ncc2C#N)c(C)c1`, a half-maximal effect in data set [1] (EC50) was put at 1 nM. Further, the logP in data set [2] (read-out: logP) was 1.74. `Cc1cc(C)c(Nc2nc(Nc3ccc(C#N)cc3)ncc2Cl)c(C)c1` displayed an EC50 in data set [1] of 2.7 nM. Besides, the lipophilicity (logP) in data set [2] (read-out: logP) is 1.8. `Cc1cc(C)c(Nc2nc(Nc3ccc(C#N)cc3)ncc2Br)c(C)c1` gave an EC50 in data set [1] of 5.5 nM. Further, the log partition coefficient (logP) in data set [2] (read-out: logP) came to 2.07. In turn, `Cc1cnc(Nc2ccc(C#N)cc2)nc1Nc1c(C)cc(C#N)cc1C` displayed an EC50 in data set [1] of 0.8 nM. For the same compound, the lipophilicity (logP) in data set [2] (read-out: logP) was determined as 1.74. The compound `Cc1cc(C#N)cc(C)c1Oc1nc(Nc2ccc(C#N)cc2)nc(N)c1Br` [ETRAVIRINE] gave an EC50 in data set [1] of 1.4 nM. Moreover, in data set [2] (read-out: logP), the log partition coefficient (logP) stood at 1.82. `Cc1cc(Cl)cc(Cl)c1Nc1ccnc(Nc2ccc(C#N)cc2)n1` displayed an EC50 in data set [1] of 1 nM. Further, in data set [2] (read-out: logP), the logP stood at 1.14.

Take `Cc1cc(Br)c(Nc2ccnc(Nc3ccc(C#N)cc3)n2)c(Br)c1`: in data set [1], a half-maximal effect (EC50) was put at 0.7 nM. Moreover, in data set [2] (read-out: logP), the logP came to 1.69. On the same counts, the results for `Cc1cc(C#N)cc(C)c1Nc1nc(Nc2ccc(C#N)cc2)ncc1Cl` are 1.2 nM and 1.37. Consider `Cc1cc(C#N)cc(C)c1Oc1ccnc(Nc2ccc(C#N)cc2)n1`, for which the 50% effective concentration (EC50) in data set [1] is 1.1 nM. The logP in data set [2] (read-out: logP) amounted to 1.64. Taken in the same sequence, the figures for `N#Cc1ccc(Nc2nccc(Nc3c(Cl)cc(Cl)cc3Cl)n2)cc1` were 0.7 nM and 0.77. On the same counts, the results for `Cc1cc(Br)cc(C)c1Oc1ccnc(Nc2ccc(C#N)cc2)n1` are 2.9 nM and 1.97. In data set [1], `Cc1cc(C#N)cc(C)c1Nc1nc(Nc2ccc(C#N)cc2)ncc1Br` returned a half-maximal effective concentration (EC50) of 0.4 nM. Further, in data set [2] (read-out: logP), the logP worked out at 1.64. In data set [1], `Cc1cc(C)c(Sc2ccnc(Nc3ccc(C#N)cc3)n2)c(C)c1` registered an EC50 of 3.6 nM. Further, the logP in data set [2] (read-out: logP) is 2.42. For the compound `Cc1cc(C#N)cc(C)c1Oc1nc(Nc2ccc(C#N)cc2)ncc1Cl`, the EC50 in data set [1] turned out to be 1.4 nM. Further, the logP in data set [2] (read-out: logP) turned out to be 1.54. In turn, `Cc1cc(C#N)cc(C)c1Nc1nc(Nc2ccc(C#N)cc2)ncc1C#N` showed an EC50 in data set [1] of 0.5 nM. Besides, the logP in data set [2] (read-out: logP) was 1.31. `C=Cc1cnc(Nc2ccc(C#N)cc2)nc1Nc1c(C)cc(C#N)cc1C` displayed an EC50 in data set [1] of 2.5 nM. In addition, in data set [2] (read-out: logP), the logP came to 2.36. `Cc1cc(Br)cc(C)c1Sc1ccnc(Nc2ccc(C#N)cc2)n1` gave an EC50 in data set [1] of 5.7 nM. Further, in data set [2] (read-out: logP), the log partition coefficient (logP) was 2.31.

In the case of `Cc1cccc(C)c1Nc1ccnc(Nc2ccc(C#N)cc2)n1`, a half-maximal response in data set [1] (EC50) required 0.7 nM. For the same compound, the logP in data set [2] (read-out: logP) amounted to 1.74. Regarding `Cc1cc(C#N)cc(C)c1Nc1ccnc(Nc2ccc(C#N)cc2)n1`, the 50% effective concentration (EC50) in data set [1] came out at 0.4 nM. Besides, in data set [2] (read-out: logP), the logP amounted to 1.47. `C#Cc1cc(C)c(Oc2ccnc(Nc3ccc(C#N)cc3)n2)c(C)c1` had a concentration for a half-maximal effect (EC50) in data set [1] of 5.5 nM. Moreover, in data set [2] (read-out: logP), the logP amounted to 1.79. On the same counts, the results for `Cc1cc(C)c(Oc2ccnc(Nc3ccc(C#N)cc3)n2)c(C)c1` are 2.9 nM and 2.07.

On to `Cc1cc(C#N)cc(C)c1Oc1nc(Nc2ccc(C#N)cc2)ncc1[N+](=O)[O-]`, for which the EC50 in data set [1] is 18 nM. Further, in data set [2], the logP is -0.98.

In the case of `CC(=O)Nc1cnc(Nc2ccc(C#N)cc2)nc1Oc1c(C)cc(C#N)cc1C`, the logP in data set [2] (read-out: logP) was -0.12. `N#Cc1ccc(Nc2nccc(Nc3c(Br)cc(F)cc3Br)n2)cc1`: in data set [1], the concentration giving a half-maximal response (EC50) came out at 0.6 nM. Besides, the logP in data set [2] (read-out: logP) is 0.94.

Turning to `Cc1cc(Cl)cc(C)c1Nc1ccnc(Nc2ccc(C#N)cc2)n1`, in data set [1], the response was half-maximal at 2.1 nM (EC50). Also, in data set [2] (read-out: logP), the logP came out at 1.52. Turning to `Cc1cc(C#N)cc(C)c1Oc1nc(Nc2ccc(C#N)cc2)ncc1Br`, the EC50 in data set [1] stood at 1.4 nM. For the same compound, the logP in data set [2] (read-out: logP) came out at 1.82.

As to `Cc1cc(Br)cc(C)c1Nc1ccnc(Nc2ccc(C#N)cc2)n1`, in data set [1], a half-maximal response (EC50) required 2.3 nM. Moreover, in data set [2] (read-out: logP), the lipophilicity (logP) worked out at 1.79.
